Patent publication US20200288710A1, “SUBSTITUTED SULPHONAMIDES FOR CONTROLLING ANIMAL PESTS” (BAYER CROPSCIENCE AKTIENGESELLSCHAFT, priority 2016, published 2020)

Experiments:
Assay type in all cases: in vivo
Phaedon cochleariae = Phaedon cochleariae spray test; conditions: foliar, 168 h, Chinese cabbage leaf discs, larvae, after 7 days, read-out: efficacy
Protocol: Phaedon cochleariae—Spray Test
To produce a suitable preparation of active compound, 1 part by weight of active compound is dissolved using the specified parts by weight of solvent and made up with water containing an emulsifier concentration of 1000 ppm until the desired concentration is attained. To produce further test concentrations, the formulation is diluted with emulsifier-containing water.
After 7 days, the efficacy in % is determined. 100% means that all the beetle larvae have been killed; 0% means that no beetle larvae have been killed.

Myzus persicae [1] = experiment: Myzus persicae spray test (Chinese cabbage leaf discs); conditions: foliar, 120 h, 500 g/ha, after 5-6 days, read-out: efficacy
Outline: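 Formulated compound in acetone/dimethylformamide, diluted in water with 1000 ppm emulsifier, was sprayed onto Brassica pekinensis leaf discs carrying mixed-stage Myzus persicae. Percent mortality was read 5-6 days later (0% = no aphids killed, 100% = all killed).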

Myzus persicae [2] = experiment: Myzus persicae oral test; conditions: 120 h, oral uptake, after 5 days, read-out: efficacy
Outline: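 Aphids of mixed ages imbibe, through parafilm, compound solution (acetone stock, water-diluted) combined with sugar-supplemented IPL41 medium to 200 μl. Efficacy read at day 5 as percent killed, 0% meaning no deaths.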

Meloidogyne incognita = Meloidogyne incognita test; conditions: 336 h, lettuce, after 14 days, read-out: nematicidal efficacy (formation of galls)
Outline: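 Gall formation on lettuce roots scored after 14 days: 0% means gall count equals untreated control, 100% means none. Sand vessels held the compound (acetone concentrate diluted in water), southern root-knot nematode egg/larvae suspension and lettuce seeds.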

Lucilia cuprina = Lucilia cuprina test; conditions: 48 h, L1 larvae, after 2 days, read-out: efficacy (kill in %)
Protocol: Lucilia cuprina Test Solvent: dimethyl sulphoxide To produce a suitable preparation of active compound, 10 mg of active compound are mixed with 0.5 ml of dimethyl sulphoxide, and the concentrate is diluted with water to the desired concentration. About 20 L1 larvae of the Australian sheep blowfly (Lucilia cuprina) are transferred into a test vessel containing minced horsemeat and the active compound preparation of the desired concentration. After 2 days, the kill in % is determined. 100% means that all the larvae have been killed; 0% means that no larvae have been killed.

| SMILES | pest or weed control at 500 g/ha (Phaedon cochleariae) [%] | pest or weed control at 500 g/ha (Myzus persicae [1]) [%] | pest or weed control at 20 ppm (Myzus persicae [2]) [%] | pest or weed control at 20 ppm (Meloidogyne incognita) [%] | pest or weed control at 100 ppm (Lucilia cuprina) [%] | pest or weed control at 4 ppm (Myzus persicae [2]; 4 ppm) [%] |
| --- | --- | --- | --- | --- | --- | --- |
| COc1ccc(Br)cc1S(=O)(=O)NC(=O)c1cn(C)c(-c2c(F)cccc2F)n1 [Example 18] | 100 | 100 | 100 | 90 | 100 |  |
| COc1ccc(Cl)c(S(=O)(=O)NC(=O)c2cn(C)c(-c3c(F)cccc3F)n2)c1 [Example 92] |  | 100 | 100 |  | 95 |  |
| Cc1ccccc1S(=O)(=O)NC(=O)c1cc(C)n(-c2ncccc2Cl)n1 [Example 274] |  | 100 | 100 | 90 | 95 |  |
| CCc1ccccc1S(=O)(=O)NC(=O)c1cn(C)c(-c2ncccc2F)n1 [Example 572] | 83 | 100 | 100 |  | 100 |  |
| Cn1cc(C(=O)NS(=O)(=O)c2ccccc2C(F)(F)F)nc1-c1c(Cl)cccc1Cl [Example 23] | 100 | 100 | 100 |  | 100 |  |
| Cn1cc(C(=O)NS(=O)(=O)c2ccccc2Cl)nc1-c1c(F)cccc1Cl [Example 106] | 100 | 90 | 100 | 100 |  |  |
| CCc1ccc(Cl)cc1S(=O)(=O)NC(=O)c1cn(C)c(-c2ncccc2F)n1 [Example 603] | 100 | 90 | 100 | 90 |  |  |
| Cn1cc(C(=O)NS(=O)(=O)c2cccc3ccccc23)nc1-c1c(F)cccc1F [Example 510] | 100 | 100 | 100 | 90 |  |  |
| Cc1ccccc1S(=O)(=O)NC(=O)c1cn(C)c(-c2ncccc2Br)n1 [Example 579] | 100 | 100 | 100 | 90 |  |  |
| Cn1cc(C(=O)NS(=O)(=O)c2cc(Cl)cc(Cl)c2)nc1-c1c(F)cccc1F [Example 188] | 100 | 90 | 100 | 100 |  |  |
| Cc1ccccc1S(=O)(=O)NC(=O)c1cn(C)c(-c2c(Cl)cccc2Cl)n1 [Example 25] |  | 100 | 100 |  | 100 |  |
| CCc1ccc(Cl)cc1S(=O)(=O)NC(=O)c1cn(C)c(-c2c(F)cccc2F)n1 [Example 279] | 100 | 90 | 100 | 100 |  |  |
| Cc1cc(F)c(F)cc1S(=O)(=O)NC(=O)c1cn(C)c(-c2c(F)cccc2F)n1 [Example 289] | 100 | 90 | 100 | 90 |  |  |
| CCc1ccccc1S(=O)(=O)NC(=O)c1cn(C)c(-c2ncccc2Cl)n1 [Example 581] | 100 | 100 |  | 100 |  | 100 |
| COc1ccc(Br)c(S(=O)(=O)NC(=O)c2cn(C)c(-c3ccccc3Cl)n2)c1 [Example 420] | 83 | 100 | 100 | 90 |  |  |
| CSc1cccc(Cl)c1S(=O)(=O)NC(=O)c1cn(C)c(-c2c(F)cccc2F)n1 [Example 385] | 100 | 100 | 100 | 90 |  |  |
| Cn1cc(C(=O)NS(=O)(=O)c2ccccc2C(F)(F)F)nc1-c1ccccc1Cl [Example 58] | 100 | 90 | 100 | 90 |  |  |
| Cc1cccc(C(F)(F)F)c1S(=O)(=O)NC(=O)c1cn(C)c(-c2cccc(Cl)c2Cl)n1 [Example 561] | 100 | 90 | 100 | 100 |  |  |
